The values that follow come from publication PMC12385234, “In Vitro Inhibitory Effects and Molecular Mechanism of Four Theaflavins on Isozymes of CYP450 and UGTs” (Foods, 2025).

Where two headings read alike, the source gives them in different places. A value given as a limit tells only on which side of the number the result lay.

Assay [1] addresses T1, CYP2C8 (Homo sapiens, UniProt P10632).
T1 sequence (P10632 1-490): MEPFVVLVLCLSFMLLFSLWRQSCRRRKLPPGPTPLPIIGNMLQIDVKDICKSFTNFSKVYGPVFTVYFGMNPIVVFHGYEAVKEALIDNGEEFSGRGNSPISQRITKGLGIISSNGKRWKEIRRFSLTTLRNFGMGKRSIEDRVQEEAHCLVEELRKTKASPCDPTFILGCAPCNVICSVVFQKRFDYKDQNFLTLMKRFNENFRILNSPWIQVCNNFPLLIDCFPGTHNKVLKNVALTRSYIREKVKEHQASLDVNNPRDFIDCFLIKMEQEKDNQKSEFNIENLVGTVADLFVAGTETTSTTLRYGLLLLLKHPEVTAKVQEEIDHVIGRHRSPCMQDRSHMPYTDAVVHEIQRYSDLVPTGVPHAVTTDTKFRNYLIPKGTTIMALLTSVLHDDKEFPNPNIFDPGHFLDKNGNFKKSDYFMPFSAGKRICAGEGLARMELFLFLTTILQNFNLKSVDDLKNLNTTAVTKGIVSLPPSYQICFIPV
Kind of assay: Inhibition of CYP2C8-mediated amodiaquine metabolism in pooled human liver microsomes. On the technique in general: Microsomes from liver hold many membrane-bound enzymes, among them those of drug oxidation.
Description: (§1) The virological tests for AIDS, hepatitis B, and hepatitis C of the donors were negative. The final reaction volume was 150 µL, and the reaction was carried out in a 96-well deep-well cell plate made of polypropylene. The reaction was conducted at a temperature of 37 °C. […]
(§2) The AB SCIEX 4000/5000 HPLC-MS/MS system, integrated with the HTS PAL autosampler (CTC Analytics AG, Basel, Switzerland) and Shimadzu LC 20 series HPLC (Shimadzu Corporation, Kyoto, Japan), was used for analysis. […] Quantification was achieved by calculating the area under the curve (AUC) for each MRM transition. […]
(§3) In accordance with the DDI guidelines from the NMPA and the US FDA, the inhibition of CYP1A2, 2B6, 2C8, 2C9, 2C19, 2D6, and 3A4 activity by the test article was assessed. The inhibitory effect was determined by measuring the reduction in metabolite formation of respective probe substrates, expressed as relative activity compared to the negative control (NC), using the following formula: Relative activity (% of NC) = (formation of metabolites in test or PC/formation in NC) × 100. […] Data processing: When the calculated value is less than 100, three significant digits are retained. When the calculated value is greater than or equal to 100, only the integer part is retained.

For assay [2], the target named is CYP2C19 (Homo sapiens, UniProt P33261). Kind of assay: Inhibition of CYP2C19 (S-mephenytoin) in pooled human liver microsomes.
Sequence of CYP2C19 (P33261 whole entry): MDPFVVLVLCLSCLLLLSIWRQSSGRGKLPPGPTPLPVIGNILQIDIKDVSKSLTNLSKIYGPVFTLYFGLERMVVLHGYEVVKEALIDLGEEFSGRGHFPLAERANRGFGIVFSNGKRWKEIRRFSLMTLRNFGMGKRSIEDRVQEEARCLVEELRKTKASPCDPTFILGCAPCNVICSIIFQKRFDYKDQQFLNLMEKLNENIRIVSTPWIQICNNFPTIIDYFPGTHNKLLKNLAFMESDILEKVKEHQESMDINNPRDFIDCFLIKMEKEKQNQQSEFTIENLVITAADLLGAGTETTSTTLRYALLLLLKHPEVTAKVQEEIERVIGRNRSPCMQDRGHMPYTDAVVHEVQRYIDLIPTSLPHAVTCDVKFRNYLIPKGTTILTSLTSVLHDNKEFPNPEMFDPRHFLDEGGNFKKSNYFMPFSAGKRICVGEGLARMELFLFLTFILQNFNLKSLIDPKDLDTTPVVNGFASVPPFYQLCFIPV
Description: (§4) The final reaction volume was 150 µL, and the reaction was carried out in a 96-well deep-well cell plate made of polypropylene. The reaction was conducted at a temperature of 37 °C. To ensure that the reaction time was within the linear range of the metabolic rate and to avoid data distortion caused by substrate depletion or product feedback inhibition, the reaction time for each substrate varied as follows: the incubation time for detecting CYP3A4 enzyme activity was 5 min; the incubation time for detecting CYP2B6, CYP2C8, CYP2C9, and CYP2D6 enzyme activities was 10 min each; the incubation time for detecting CYP1A2 and CYP2C19 enzyme activities was 30 min each.
(§5) The AB SCIEX 4000/5000 HPLC-MS/MS system, integrated with the HTS PAL autosampler (CTC Analytics AG, Basel, Switzerland) and Shimadzu LC 20 series HPLC (Shimadzu Corporation, Kyoto, Japan), was used for analysis. […]
(§6) In accordance with the DDI guidelines from the NMPA and the US FDA, the inhibition of CYP1A2, 2B6, 2C8, 2C9, 2C19, 2D6, and 3A4 activity by the test article was assessed. The inhibitory effect was determined by measuring the reduction in metabolite formation of respective probe substrates, expressed as relative activity compared to the negative control (NC), using the following formula: Relative activity (% of NC) = (formation of metabolites in test or PC/formation in NC) × 100. […]
Assay [3] addresses T2, UGT1A4 (Homo sapiens, UniProt P22310).
T2 sequence (P22310 29-534): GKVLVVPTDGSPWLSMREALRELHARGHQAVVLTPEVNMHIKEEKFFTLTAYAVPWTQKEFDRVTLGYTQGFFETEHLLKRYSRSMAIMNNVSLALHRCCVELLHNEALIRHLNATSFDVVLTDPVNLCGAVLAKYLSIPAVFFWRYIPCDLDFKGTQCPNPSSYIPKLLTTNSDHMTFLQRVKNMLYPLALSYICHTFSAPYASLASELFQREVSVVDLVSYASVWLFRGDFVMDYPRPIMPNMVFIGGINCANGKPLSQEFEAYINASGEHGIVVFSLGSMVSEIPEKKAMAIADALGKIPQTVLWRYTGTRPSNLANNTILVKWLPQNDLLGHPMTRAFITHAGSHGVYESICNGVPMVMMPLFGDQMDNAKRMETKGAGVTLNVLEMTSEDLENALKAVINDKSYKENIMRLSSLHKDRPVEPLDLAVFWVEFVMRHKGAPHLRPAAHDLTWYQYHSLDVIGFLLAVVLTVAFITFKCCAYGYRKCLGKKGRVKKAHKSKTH
Kind of assay: Inhibition of UGT1A4-catalyzed trifluoperazine glucuronidation, human recombinant UGT.
Description: (§7) These enzymes were then incubated with each compound (Table 1). Subsequently, the corresponding substrates for each UGT isoenzyme were added. The inhibitory effects of the respective products were evaluated by measuring their generation. […] Each incubation mixture was prepared in triplicate, containing 0.25 mg/mL recombinant enzyme, 5 mM UDPGA, and 10 mM propylthiouracil, among other conditions.

Assay [4] has as its target T3, CYP2B6 (Homo sapiens, UniProt P20813).
T3 sequence (P20813 1-491): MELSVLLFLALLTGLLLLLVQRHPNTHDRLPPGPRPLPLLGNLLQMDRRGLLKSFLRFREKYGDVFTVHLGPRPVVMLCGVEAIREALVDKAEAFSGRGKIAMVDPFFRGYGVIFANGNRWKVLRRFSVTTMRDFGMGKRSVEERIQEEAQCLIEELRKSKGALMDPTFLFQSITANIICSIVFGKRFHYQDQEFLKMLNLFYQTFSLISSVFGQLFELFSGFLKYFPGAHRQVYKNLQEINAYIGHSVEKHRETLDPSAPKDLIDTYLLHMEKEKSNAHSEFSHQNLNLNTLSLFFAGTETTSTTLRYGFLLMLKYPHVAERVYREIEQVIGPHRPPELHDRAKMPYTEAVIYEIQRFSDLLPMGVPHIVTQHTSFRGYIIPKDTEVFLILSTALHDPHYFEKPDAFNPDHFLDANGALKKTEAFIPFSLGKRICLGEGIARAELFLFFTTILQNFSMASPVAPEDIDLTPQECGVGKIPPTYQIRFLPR
As to the kind of experiment: Inhibition of CYP2B6 (bupropion) in pooled human liver microsomes.
Description: as §1, §2, §3

The target in assay [5] is CYP2C9 (Homo sapiens, UniProt P11712). Kind of assay: Inhibition of CYP2C9 (diclofenac) in pooled human liver microsomes.
Sequence of CYP2C9 (P11712 whole entry): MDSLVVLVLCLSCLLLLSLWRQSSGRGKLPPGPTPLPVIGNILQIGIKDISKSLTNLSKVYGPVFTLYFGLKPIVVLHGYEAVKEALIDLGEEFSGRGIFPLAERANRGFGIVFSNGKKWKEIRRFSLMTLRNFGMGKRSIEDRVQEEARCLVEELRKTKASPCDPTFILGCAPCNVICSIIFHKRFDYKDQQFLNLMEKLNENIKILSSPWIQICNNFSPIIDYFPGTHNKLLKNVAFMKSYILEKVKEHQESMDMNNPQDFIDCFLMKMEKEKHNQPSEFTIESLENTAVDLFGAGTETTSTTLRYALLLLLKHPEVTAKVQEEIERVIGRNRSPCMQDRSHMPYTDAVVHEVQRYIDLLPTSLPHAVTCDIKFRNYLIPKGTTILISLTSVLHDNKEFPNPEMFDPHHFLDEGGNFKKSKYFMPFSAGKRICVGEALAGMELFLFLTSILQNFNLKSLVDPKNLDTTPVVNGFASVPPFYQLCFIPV
Description: as §1, §2, §3
Assay [6] has as its target CYP2D6 (Homo sapiens, UniProt P10635). As to the kind of experiment: Inhibition of CYP2D6 (dextromethorphan) in pooled human liver microsomes.
Description: as §4, §5, §6
In assay [7] the target is CYP3A4 (Homo sapiens, UniProt P08684). Kind of assay: Inhibition of CYP3A4 (testosterone, midazolam) in pooled human liver microsomes.
Sequence of CYP3A4 (P08684 whole entry): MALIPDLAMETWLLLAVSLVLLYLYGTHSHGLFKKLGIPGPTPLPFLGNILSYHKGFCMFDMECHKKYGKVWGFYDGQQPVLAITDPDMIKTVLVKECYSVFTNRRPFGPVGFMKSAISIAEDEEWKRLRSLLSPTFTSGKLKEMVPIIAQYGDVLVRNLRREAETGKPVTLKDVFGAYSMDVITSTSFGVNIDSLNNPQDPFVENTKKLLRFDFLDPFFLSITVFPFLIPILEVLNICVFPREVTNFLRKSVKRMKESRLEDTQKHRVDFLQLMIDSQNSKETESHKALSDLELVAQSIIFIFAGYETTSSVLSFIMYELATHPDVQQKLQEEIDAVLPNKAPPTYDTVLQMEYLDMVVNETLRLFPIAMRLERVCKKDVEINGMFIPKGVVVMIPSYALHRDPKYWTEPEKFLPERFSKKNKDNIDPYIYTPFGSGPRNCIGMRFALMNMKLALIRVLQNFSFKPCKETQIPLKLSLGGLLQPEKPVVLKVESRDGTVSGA
Description: as §1, §2, §3
For assay [8], the target named is T4, UGT1A3 (Homo sapiens, UniProt P35503).
T4 sequence (P35503 29-534): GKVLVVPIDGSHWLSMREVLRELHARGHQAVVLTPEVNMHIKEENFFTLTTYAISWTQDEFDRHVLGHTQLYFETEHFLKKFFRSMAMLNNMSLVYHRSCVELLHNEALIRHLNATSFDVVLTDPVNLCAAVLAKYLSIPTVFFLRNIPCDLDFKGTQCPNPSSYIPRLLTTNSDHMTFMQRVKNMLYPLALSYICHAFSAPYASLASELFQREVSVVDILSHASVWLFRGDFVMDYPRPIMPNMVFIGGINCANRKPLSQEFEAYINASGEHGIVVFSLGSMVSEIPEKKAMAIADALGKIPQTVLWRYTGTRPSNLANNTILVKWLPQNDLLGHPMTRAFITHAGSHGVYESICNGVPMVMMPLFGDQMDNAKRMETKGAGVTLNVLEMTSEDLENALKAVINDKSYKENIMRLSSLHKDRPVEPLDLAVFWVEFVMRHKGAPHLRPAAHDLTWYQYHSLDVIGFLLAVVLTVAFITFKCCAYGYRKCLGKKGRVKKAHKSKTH
As to the kind of experiment: Inhibition of UGT1A3-mediated beta-estradiol glucuronidation, human recombinant UGT.
Description: as §7

Assay [9] concerns the target T5, UGT1A1 (Homo sapiens, UniProt P22309).
T5 sequence (P22309 26-533): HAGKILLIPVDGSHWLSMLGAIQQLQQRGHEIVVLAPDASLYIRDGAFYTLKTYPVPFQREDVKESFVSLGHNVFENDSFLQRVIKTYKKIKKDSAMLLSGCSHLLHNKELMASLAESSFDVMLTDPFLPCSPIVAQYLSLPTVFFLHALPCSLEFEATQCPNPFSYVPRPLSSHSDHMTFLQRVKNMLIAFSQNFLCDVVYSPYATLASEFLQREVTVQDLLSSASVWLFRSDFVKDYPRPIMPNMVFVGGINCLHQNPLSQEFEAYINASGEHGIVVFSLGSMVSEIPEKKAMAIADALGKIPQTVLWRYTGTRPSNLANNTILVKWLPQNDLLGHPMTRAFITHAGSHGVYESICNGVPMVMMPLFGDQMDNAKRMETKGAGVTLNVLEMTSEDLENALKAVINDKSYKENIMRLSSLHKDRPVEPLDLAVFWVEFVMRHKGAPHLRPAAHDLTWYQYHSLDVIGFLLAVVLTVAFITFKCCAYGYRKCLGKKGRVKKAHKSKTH
Kind of assay: Inhibition of UGT1A1-catalyzed beta-estradiol glucuronidation, human recombinant UGT.
Description: as §7

In assay [10] the target is T6, UGT2B15 (Homo sapiens, UniProt P54855).
T6 sequence (P54855 24-530): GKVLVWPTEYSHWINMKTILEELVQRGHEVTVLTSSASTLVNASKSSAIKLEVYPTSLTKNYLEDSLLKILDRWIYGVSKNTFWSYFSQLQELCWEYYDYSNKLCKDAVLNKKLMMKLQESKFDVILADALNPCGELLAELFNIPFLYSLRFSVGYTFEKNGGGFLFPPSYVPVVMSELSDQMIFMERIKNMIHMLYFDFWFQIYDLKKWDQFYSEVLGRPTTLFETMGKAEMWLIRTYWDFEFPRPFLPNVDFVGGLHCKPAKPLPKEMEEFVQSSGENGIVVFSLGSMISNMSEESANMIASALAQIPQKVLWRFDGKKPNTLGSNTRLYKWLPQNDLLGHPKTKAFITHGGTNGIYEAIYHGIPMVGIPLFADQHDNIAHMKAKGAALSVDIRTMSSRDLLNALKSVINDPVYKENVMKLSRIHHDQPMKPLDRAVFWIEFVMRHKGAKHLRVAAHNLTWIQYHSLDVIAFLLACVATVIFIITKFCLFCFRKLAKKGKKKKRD
Kind of assay: Inhibition of UGT2B15-catalyzed 4-trifluoromethyl-7-hydroxycoumarin glucuronidation, human recombinant UGT.
Description: as §7

In assay [11] the target is T7, CYP1A2 (Homo sapiens, UniProt P05177).
T7 sequence (P05177 1-516): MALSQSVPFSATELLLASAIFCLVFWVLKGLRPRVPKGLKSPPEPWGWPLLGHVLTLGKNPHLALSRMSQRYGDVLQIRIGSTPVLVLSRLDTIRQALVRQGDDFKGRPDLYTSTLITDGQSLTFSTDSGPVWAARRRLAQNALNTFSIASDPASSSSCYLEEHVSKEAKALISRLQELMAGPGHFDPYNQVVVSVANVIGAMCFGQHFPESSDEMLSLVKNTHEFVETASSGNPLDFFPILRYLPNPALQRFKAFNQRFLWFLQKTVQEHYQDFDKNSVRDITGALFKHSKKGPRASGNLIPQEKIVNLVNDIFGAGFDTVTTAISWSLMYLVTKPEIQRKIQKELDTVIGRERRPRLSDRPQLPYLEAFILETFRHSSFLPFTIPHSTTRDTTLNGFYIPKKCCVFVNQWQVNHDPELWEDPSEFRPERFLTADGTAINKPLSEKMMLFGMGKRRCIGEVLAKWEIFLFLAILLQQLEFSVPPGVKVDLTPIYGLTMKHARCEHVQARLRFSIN
As to the kind of experiment: Inhibition of CYP1A2-catalyzed phenacetin metabolism in pooled human liver microsomes.
Description: as §1, §2, §3

Assay [12] has as its system UGT1A1. The conditions noted are these: cited from earlier work.
The test system of assay [13] is UGT1A9. The conditions noted are these: cited from earlier work.

Sequence of CYP2D6 (P10635 whole entry): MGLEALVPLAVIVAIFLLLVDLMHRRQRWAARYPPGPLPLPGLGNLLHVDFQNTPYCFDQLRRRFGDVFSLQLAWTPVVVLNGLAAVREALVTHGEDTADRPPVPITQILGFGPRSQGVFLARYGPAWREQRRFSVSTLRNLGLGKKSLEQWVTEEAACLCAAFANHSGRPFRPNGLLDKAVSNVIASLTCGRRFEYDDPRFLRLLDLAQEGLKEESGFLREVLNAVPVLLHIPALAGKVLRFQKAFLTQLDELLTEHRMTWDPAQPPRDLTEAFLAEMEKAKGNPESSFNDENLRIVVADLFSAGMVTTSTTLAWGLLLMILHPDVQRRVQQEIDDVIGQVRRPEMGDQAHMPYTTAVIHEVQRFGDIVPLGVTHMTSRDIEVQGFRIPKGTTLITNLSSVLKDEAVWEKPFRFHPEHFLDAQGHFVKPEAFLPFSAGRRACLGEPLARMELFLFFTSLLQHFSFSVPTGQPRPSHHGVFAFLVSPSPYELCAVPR

The IC50 is the point on the concentration scale where inhibition reaches its midpoint. For the compound `O=c1c(O)cc([C@H]2Oc3cc(O)cc(O)c3C[C@H]2O)cc2c([C@H]3Oc4cc(O)cc(O)c4C[C@H]3O)cc(O)c(O)c12` [Theaflavin, theaflavin], the concentration for half-maximal inhibition (IC50) in [1], in assay [2], in assay [3], in [4], in [5] and in assay [6] was over 20 µM each time. Also, the IC50 in assay [7] was over 20 µM; in assay [7] (read-out: IC50, CYP3A4-M, pooled HLMs, probe midazolam), over 20 µM; in assay [8], over 20 µM; in assay [9] it was 3.89 µM; in assay [10], over 20 µM; in assay [11], over 20 µM.

As for `O=c1c(O)c(-c2ccc(O)c(O)c2)oc2cc(O)cc(O)c12` [quercetin], the “Inhibition of UGT1A1 (in words)” value in [12] is “strong inhibition”.

As for (-)-epigallocatechin-3-gallate [EGCG], in assay [13], the “Inhibition of UGT1A9 (in words)” value is listed as “moderately inhibit”. Besides, the “Inhibition of UGT1A1 (in words)” value in [12] was “moderately inhibit”.
